Experimental data as given in patent publication US20030065039A1, “Biologically active 1,3-bis-aromatic-prop-2-en-1-ones, 1,3-bis-aromatic-propan-1-ones, and 1,3-bis-aromatic-prop-2-yn-1-ones” (Statens Serum Institute, priority 1997, published 2003).
Values after ≈ are worked out from the molar mass of the structure shown.

What was measured:
[1] = tested on: human lymphocytes; experiment: Lymphocyte Proliferation Assay; assay type: cell-based; conditions: Lymphocyte; PHA provoked proliferation of human lymphocytes; read-out: Lymphocytes IC50 ± SD
Procedure: Human blood mononuclear cells (BMNC) from heparinized blood were isolated by metrizoate sodium-Ficoll density gradient centrifugation, washed 3 times in RPMI 1640 medium supplemented with 5% FCS and with 400 IU of penicillin plus 400 μg/ml streptomycin. BMNC were resuspended in the medium and cultured in triplicate, 0.63×10^5/ml and 160 μl per vial, in round-bottom microtiter plates with 20 μl of various concentrations of the test compound. Immediately prior to incubation, optimum concentrations of the mitogen phytohaemagglutinin (PHA) and the antigen purified protein derivative of tuberculin (PPD) were added to the cultures in a volume of 20 μl. Unstimulated control cultures were always included. Cultures were incubated for 3 or 7 days. The degree of lymphocyte proliferation was estimated by ^3H-thymidine (1 μCi per well) addition 24 h before the cells were harvested on glass fiber filters by means of a harvesting machine), and ^3H-thymidine incorporation was measured in a liquid scintillation counter. For each set of triplicate values, the median was recorded. Unstimulated cultures were always included as controls.

[2] = tested on: Leishmania promastigotes; experiment: Leishmania promastigotes Assay; assay type: cell-based; conditions: Leishmania; promastigotes, 3H-thymidine uptake; read-out: Leishmania IC50 ± SD
Procedure: A WHO reference vaccine strain of L. major originally isolated from a patient in Iran and a Kenyan strain of L. donovani (MHOM(/KE/85/NLB 274) were cultured in medium 199 containing 0.02 mg/ml gentamycin, 25 mM Hepes, 4 mM L-glutamine, and 20% heat inactivated fetal calf serum (FCS). Incubation was carried out at 26° C. Promastigotes were harvested on day 3 and 6 of the culture and used for the parasite growth inhibition.
The effect of the test compounds on promastigotes was assessed by a method similar to the one described by Pearson et al., by incubating promastigotes (3×10^6/ml) at 26° C. for 2 hrs in the presence of a given compound or the medium alone in 96 wells flat bottom microtiter plates. Following incubation, 100 μCi of 3H-thymidine was added to each well and further incubated for 18 hrs. Promastigotes were then harvested on filter paper by means of a cell harvester, extensively washed with distilled water and counted in a scintillation counter. The promastigotes were also counted microscopically and their flagellar motility was assessed.

[3] = tested on: Plasmodium falciparum; experiment: Plasmodium falciparum Assay; assay type: cell-based; conditions: Plasmodium falciparum; 3-H-hypoxanthine incorporation, 48 hours; read-out: Plasmodium IC50 ± SD
Procedure: The experiments in which compounds were tested for their ability to inhibit parasite growth were performed by a modification of the method originally described by Jensen et al. (1982). 50 μl of parasitized erythrocytes (parasitemia approximately 1%) in a concentration of 5×10^8/ml and 50 μl of RPMI medium containing different concentrations of the test compound was added to each well of a 96 well flat-bottomed microtiter plate. The cultures were then incubated for 48 hours, 24 hours before termination of the culture adding 20 μl of 3-H-hypoxanthine (40 uCi/ml) was added to each well. The cultures were then harvested onto glass fiber filters using a Skatron cell harvester, and the incorporation of 3-H-hypoxanthine into the DNA of dividing parasites was determined by liquid scintillation spectrometry. Control cultures with uninfected erythrocytes and infected erythrocytes in RPMI medium without test compounds were always performed in parallel to the test cultures. In some experiments thin smears of parasite cultures were stained by Giemsa and examined under microscope (×1000). The test compounds described above, were diluted in RPMI medium immediately before use. In the experiments, chloroquine phosphate was used as a positive control as a drug known to inhibit parasite growth.

[4] = tested on: TNF-α; experiment: TNF-α production by human peripheral blood mononuclear cells, culture supernatant (ELISA); assay type: cell-based
Procedure: Cells: Peripheral blood mononuclear cells obtained from healthy individuals. The cells were separated by a conventional method lymphoprep) and suspended in RMPI 1640 containing 5% human serum.
Stimulation of cytokine-release from human mononuclear cells: Human peripheral blood mononuclear cells from Danish donors were suspended in 1-10% (v/v) human serum in RPMI 1640 and adjusted to 2×10^6 cells per ml. 0.1 ml volumes were then dispensed into wells of 96-well microtiter plates. […] In some experiments cells were preincubated with drugs for 2 hrs before addition of stimulation antigens. The cultures were incubated overnight for TNF-α and IL-6 assays.
Supernatants were collected and assayed for TNF-α, IL-1α and IL-6 by ELISA procedures (Jakobsen et al., 1993, Fomsgaard et al., 1988, Hansen et al., 1991) with the following modifications. ELISA Maxisorp plates (Nunc, Roskilde, Denmark) were coated for 24 hrs at 4 C with 100 μl per well of 2.5 μg/ml rabbit polyclonal IgG to human recombinant TNF, IL-1α or IL-6 in 100 mM sodiumhydrogencarbonate. Non-attached sites were blocked for 1 h by 200 μl per well of 2% human serum slbumin in PBS (1 h at 37° C.), and the wells were washed 4 times in 2.5% NaCl, 0.1% Tween 20 (Merck, Darmstadt, Germany). This washing procedure was done after each of the following incubating steps:
1) 100 μl culture supernatants made to 50% (v/v) in incubation buffer (4% (v/v) normal rabbit serum, DAKO code X902), 1% polyethylene glycol (MW 6,000), 2.5% NaCl, 0.1% Tween 20 in phosphate buffered saline (PBS) were incubated 2 hrs at 37° C., dilutions of native as well as recombinant cytokine standards in the same incubation buffer were asssayed in parallel with the tested supernatants,
2) 100 μl per well of biotinilated rabbit antibodies to recombinant TNF-α, IL-1α or IL-6 (1.5 μg/ml in 0.5% human serum albumin, 0.1% Tween 20 in PBS) were added at 37° for 2 hrs,
3) […] per well of a 1:1000 dilution of streptavidin-peroxidase (Amersham, UK), at room temperature for 30 min.
Enzyme activities were quantitated after addition of 100 μl per well of 0.67 mg/ml 1,2-phenyldiamine hydrochloride (DAKO) dissolved in 100 mM citric acid-phosphate buffer, pH 5.0 containing 0.015% (v/v) H2O2. The reactions were stopped by adding 50 μl per well of 2.5 M H2SO4, and the optical densities are measured in an ELISA scanner at 490 nm against a test reference at 620 nm.
Assay: The compounds were prepared as stock solution at a concentration of 1 mg/ml in medium containing 10% DMSO. The dilutions were made in medium. The cells were stimulated with either SPAG (a malaria antigen TNF-inducer) or bacterial LPS. The supernatant of cell cultures were assayed for TNF-α using a commercial ELISA kit.

[5] = tested on: Helicobacter pylori; experiment: Helicobacter species Assay (agar plate, MIC); assay type: cell-based; conditions: for MIC: Helicobacter pylori, 20 strains of H. pylori, agar plate, 72 hours, read-out: MIC; for No. strains inhibited/No. strains tested: at the MIC of the same line
Procedure: (§1) 20 strains of Helicobacter pylori were used in an agar plate assay. The compounds were incorporated in the agar plates at different concentrations as described in the examples and were then inoculated with different strains of Helicobacter pylori followed by incubation in a microaerophilic atmosphere at 37° C. for 72 hours. The number of colony-forming units (CFU) were counted after the incubation period. The MIC values were determined as the minimal concentration required to inhibit growth of the bacteria.
(§2) Stock solutions were made at a concentration of 1 mg/ml by dissolving 1 mg of each compound in 100 μl DMSO (dimethylsulfoxide) followed by addition of 900 μl of heat-inactivated fetal claf serum (HFCS). These stock solutions were diluted with HFCS to make solutions having the following concentrations: 320 μg/ml, 160 μg/ml, 80 μg/ml, 40 μg/ml and 20 μg/ml. Dilution rows were made with 3 ml aliquots in vials containing the compounds in the following final test concentrations: 16 μg/ml, 8 μg/ml, 4 μg/ml, 2 μg/ml and 1 μg/ml. As control was used DMSO-HFCS containing an amount of DMSO equal to the amount of test compound in the solution with 320 μg/ml compound.
as §1, with “Bacteria: 20” for “20”, “concentrations” for “concentrations as described in the examples”, “and then they” for “and”, “were” for “were then”, “incubation at” for “incubation in a”, “C. in” for “C. for”
as §2, with “concentrations: 2560 μg/ml, 1280 μg/ml, 640 μg/ml,” for “concentrations:”, “160 µg/ml and” for “160 μg/ml,”, “80” for “80 μg/ml, 40 μg/ml and 20”, “concentrations: 128 μg/ml, 64 μg/ml, 32 μg/ml, 12” for “concentrations: 16”, “8” for “8 μg/ml, 4 μg/ml, 2”, “and 4” for “and 1”
Bacteria: 20 strains of Helicobacter pylori were used in an agar plate assay. The same method as described above under Experiment A was employed and MIC values were determined.

[6] = Experiment 1, LPS, 12.5 μg/ml, Control 1.17
[7] = Experiment 1, LPS, 25 μg/ml, Control 1.17
[8] = Experiment 1, LPS, 50 μg/ml, Control 1.17
[9] = Experiment 1, LPS, 100 μg/ml, Control 1.17
[10] = Experiment 1, SPAG, 12.5 μg/ml, Control 3.73
[11] = Experiment 1, SPAG, 25 μg/ml, Control 3.73
[12] = Experiment 1, SPAG, 50 μg/ml, Control 3.73
[13] = Experiment 1, SPAG, 100 μg/ml, Control 3.73

Row | melting point [°C] | IC50 [2] [µM] | IC50 [3] [µM] | Structure (SMILES) | IC50 [1] [µM] | MIC [5] [µg/mL] | No. strains inhibited/No. strains tested [5] | also measured
1 | 214 to 214.7 |  |  | CN(C)c1ccc(/C=C/C(=O)c2ccc([N+](=O)[O-])cc2)cc1 [4′-NO2-4-N(CH3)2, 4-dimethylamino-4′-nitrochalcone] |  |  |  | 
2 | 75.6 to 78.9 | 18 ± 3 |  | COc1cccc(C(=O)/C=C/c2ccc(OC)cc2OC)c1 [3′,2,4-OCH3, 2,4,3′-trimethoxychalcone] | 42 ± 2 |  |  | 
3 | 160.9 to 161.1 |  | 200 | O=C(/C=C/c1ccc(Oc2ccccc2)cc1)c1ccc(C2CCCCC2)cc1 [4′-cC6H11-4-OC6H5, 4-phenoxy-4′-cyclohexylchalcone] |  |  |  | 
4 | 111.6 to 112.5 | 8.3 ± 0.9 |  | COc1cc(/C=C/C(=O)c2ccc(OC)c(OC)c2OC)cc(OC)c1 [2′,3′,4′,3,5-OCH3, 3,5,2′,3′,4′-pentamethoxychalcone] | 8.7 ± 0.5 |  |  | 
5 | 115.7 to 116 | 42 ± 6 |  | O=C(/C=C/c1ccc(Oc2ccccc2)cc1)c1ccc(F)cc1 [4′-F-4-OC6H5, 4-phenoxy-4′-fluorochalcone] | 33 ± 2 |  |  | 
6 |  |  | 17 | COc1cc(/C=C/C(=O)c2ccc(N(C)C)cc2)cc(OC)c1 [PH32, 4′-dimethylamino-3,5-dimethoxychalcone] |  | > 128 | 0/20 | inhibitory effect on TNF-α production [4]: no or very little inhibitory effect; TNF-α production (OD values) [4, 6]: 1.23 OD; TNF-α production (OD values) [4, 7]: 1.55 OD; TNF-α production (OD values) [4, 8]: 1.28 OD; TNF-α production (OD values) [4, 9]: 0.94 OD; TNF-α production (OD values) [4, 10]: 3.90 OD; TNF-α production (OD values) [4, 11]: 2.26 OD; TNF-α production (OD values) [4, 12]: 1.74 OD; TNF-α production (OD values) [4, 13]: 0.75 OD
7 | 88.1 to 88.7 | 8.6 |  | COc1ccc(/C=C/C(=O)c2cccc([N+](=O)[O-])c2)c(OC)c1 [3′-NO2-2,4-OCH3, 2,4-dimethoxy-3′-nitrochalcone] | 18 ± 2 |  |  | 
8 |  |  |  | CCCCOc1ccccc1C(=O)/C=C/c1ccc(OC)cc1OC [PH142, 2′-butoxy-2,4-dimethoxychalcone] |  | 128 (≈ 376 µM) | 2/20 | TNF-α production (OD values) [4, 6]: 0.26 OD; TNF-α production (OD values) [4, 7]: 0.24 OD; TNF-α production (OD values) [4, 8]: 0.18 OD; TNF-α production (OD values) [4, 9]: 0.10 OD; TNF-α production (OD values) [4, 10]: 0.02 OD; TNF-α production (OD values) [4, 11]: 0.02 OD; TNF-α production (OD values) [4, 12]: 0.02 OD; TNF-α production (OD values) [4, 13]: 0.02 OD; TNF-α production (OD values) ([4]; Experiment 2, LPS, 1.562 μg/ml, Control 2.06): 1.58 OD; TNF-α production (OD values) ([4]; Experiment 2, LPS, 3.125 μg/ml, Control 2.06): 1.00 OD; TNF-α production (OD values) ([4]; Experiment 2, LPS, 6.25 μg/ml, Control 2.06): 0.65 OD; TNF-α production (OD values) ([4]; Experiment 2, LPS, 12.5 μg/ml, Control 2.06): 0.16 OD; TNF-α production (OD values) ([4]; Experiment 2, SPAG, 1.562 μg/ml, Control 2.28): 1.86 OD; TNF-α production (OD values) ([4]; Experiment 2, SPAG, 3.125 μg/ml, Control 2.28): 0.55 OD; TNF-α production (OD values) ([4]; Experiment 2, SPAG, 6.25 μg/ml, Control 2.28): 0.04 OD; TNF-α production (OD values) ([4]; Experiment 2, SPAG, 12.5 μg/ml, Control 2.28): 0.02 OD
9 | 75 to 75.8 | 15 ± 1 |  | COc1ccc(C(=O)/C=C/c2ccccc2F)c(OC)c1OC [2-F-2′,3′,4′-OCH3, 2-fluoro-2′,3′,4′-trimethoxychalcone] | 11 ± 1 |  |  | 

Row | Structure (SMILES) | melting point [°C] | IC50 [2] [µM] | IC50 [3] [µM] | IC50 [1] [µM] | MIC [5] [µg/mL] | No. strains inhibited/No. strains tested [5] | also measured
10 | CCCCOc1cccc(C(=O)/C=C/c2ccc(OC)cc2OC)c1 [PH81, 3′-butoxy-2,4-dimethoxychalcone] |  | 20 ± 3 | 16 | 65 ± 4 | 16 (≈ 47 µM) | 5/20 | 
